From the supplement of paper PMC10307832

Each cell line was assayed with Cc1ccc(NC(=O)c2ccc(CN3CCN(C)CC3)cc2)cc1Nc1nc(-c2cccnc2)cs1 [Masitinib] + CCNC(=O)c1noc(-c2cc(C(C)C)c(O)cc2O)c1-c1ccc(CN2CCOCC2)cc1 [Luminespib] (partner 0.01 µM) (assay: relative viability (nuclei count vs DMSO), 5 days (fraction); higher = more cells survive). Details: first compound 0.01 µM.
Procedure, shortened: (§1)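 A single step with final 0.05% Triton X-100, 1% formaldehyde and 1 ug/ml Hoechst fixed the cells and stained nuclei 5 days after treatment. Lung cancer cell lines in 1536-well plates had been treated by pin tool the day after seeding with one drug alone or a fixed anchor-drug dose plus five library-drug doses (not always all listed) in √10 steps, and nuclei were counted on 4× images. Relative viability is the ratio of nuclei in treated wells to nuclei in vehicle wells, taken as the median of duplicate plates.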

Cell Line | relative viability
NCI-H838 | 0.314
NCI-H1651 | 0.823
NCI-H1734 | 0.194
NCI-H2009 | 0.969
LU99A | 0.3
PC-14 | 0.15
LCLC-103H | 0.727
NCI-H596 | 0.936
NCI-H2228 | 0.172
EMC-BAC-2 | 1.01
NCI-H2087 | 0.158
NCI-H647 | 0.223
LK-2 | 0.183
NCI-H2126 | 0.888
NCI-H2342 | 0.775
NCI-H1793 | 0.165
H3255 | 0.586
COR-L23 | 0.598
COR-L 105 | 0.758
LOU-NH91 | 0.307
ChaGo-K-1 | 0.681
NCI-H358 | 0.21
NCI-H3122 | 0.109
HOP-62 | 0.75
SW 900 | 0.165
NCI-H1563 | 0.509
NCI-H1650 | 0.195
NCI-H2170 | 0.645
ABC-1 | 0.397

Same assay, conditions: first compound 0.03162 µM

Cell Line | relative viability
NCI-H522 | 1.16
NCI-H1623 | 0.451
NCI-H838 | 0.309
NCI-H1651 | 1.23
NCI-H1734 | 0.195
NCI-H2009 | 0.938
LU99A | 0.219
PC-14 | 0.222
LCLC-103H | 0.932
NCI-H596 | 1.03
NCI-H2228 | 0.189
EMC-BAC-2 | 1.06
NCI-H2087 | 0.166
NCI-H647 | 0.141
LK-2 | 0.183
NCI-H2126 | 1

Cell Line | relative viability
NCI-H2342 | 0.79
NCI-H1793 | 0.166
H3255 | 0.772
COR-L23 | 0.598
COR-L 105 | 0.677
LOU-NH91 | 0.32
ChaGo-K-1 | 0.48
NCI-H358 | 0.299
NCI-H3122 | 0.0826
HOP-62 | 0.839
SW 900 | 0.156
NCI-H1563 | 0.537
NCI-H1650 | 0.227
NCI-H2170 | 0.689
ABC-1 | 0.692

Same assay, conditions: first compound 0.1 µM

Cell Line | relative viability
NCI-H522 | 1.05
NCI-H1623 | 0.814
NCI-H838 | 0.245
NCI-H1651 | 0.822
NCI-H1734 | 0.188
NCI-H2009 | 1.03
LU99A | 0.271
PC-14 | 0.246
LCLC-103H | 1.04
NCI-H596 | 1.11
NCI-H2228 | 0.16
EMC-BAC-2 | 1.15
NCI-H2087 | 0.153
NCI-H647 | 0.13
LK-2 | 0.132
NCI-H2126 | 0.951

Cell Line | relative viability
NCI-H2342 | 0.707
NCI-H1793 | 0.182
H3255 | 0.611
COR-L23 | 0.798
COR-L 105 | 0.776
LOU-NH91 | 0.337
ChaGo-K-1 | 0.635
NCI-H358 | 0.37
NCI-H3122 | 0.0942
HOP-62 | 0.949
SW 900 | 0.163
NCI-H1563 | 0.524
NCI-H1650 | 0.221
NCI-H2170 | 1.02
ABC-1 | 0.743

Same assay, conditions: first compound 0.3162 µM

Cell Line | relative viability
NCI-H522 | 1.13
NCI-H1623 | 0.427
NCI-H838 | 0.241
NCI-H1651 | 0.75
NCI-H1734 | 0.187
NCI-H2009 | 1
LU99A | 0.353
PC-14 | 0.151
LCLC-103H | 0.748
NCI-H596 | 0.53
NCI-H2228 | 0.148
EMC-BAC-2 | 1.13
NCI-H2087 | 0.202
NCI-H647 | 0.195
LK-2 | 0.151
NCI-H2126 | 0.89

Cell Line | relative viability
NCI-H2342 | 0.727
NCI-H1793 | 0.162
H3255 | 1.02
COR-L23 | 0.931
COR-L 105 | 0.686
LOU-NH91 | 0.272
ChaGo-K-1 | 0.524
NCI-H358 | 0.342
NCI-H3122 | 0.109
HOP-62 | 0.968
SW 900 | 0.158
NCI-H1563 | 0.532
NCI-H1650 | 0.191
NCI-H2170 | 0.631
ABC-1 | 0.484

Same assay, conditions: first compound 1 µM

Cell Line | relative viability
NCI-H522 | 0.94
NCI-H1623 | 0.506
NCI-H838 | 0.263
NCI-H1651 | 0.769
NCI-H1734 | 0.172
NCI-H2009 | 1.06
LU99A | 0.191
PC-14 | 0.196
LCLC-103H | 1.03
NCI-H596 | 1.02
NCI-H2228 | 0.15
EMC-BAC-2 | 1.16
NCI-H2087 | 0.181
NCI-H647 | 0.259
LK-2 | 0.175
NCI-H2126 | 0.794

Cell Line | relative viability
NCI-H2342 | 0.791
NCI-H1793 | 0.567
H3255 | 0.838
COR-L23 | 0.579
COR-L 105 | 0.66
LOU-NH91 | 0.372
ChaGo-K-1 | 0.569
NCI-H358 | 0.186
NCI-H3122 | 0.0792
HOP-62 | 0.855
SW 900 | 0.185
NCI-H1563 | 0.505
NCI-H1650 | 0.206
NCI-H2170 | 1.02
ABC-1 | 0.429

These cell lines were tested with CC1=CC(=CC=C1)NC2=NC(=CS2)C3=CC=NC=C3 + Cc1nc(NC(=O)N2CCC[C@H]2C(N)=O)sc1-c1ccnc(C(C)(C)C(F)(F)F)c1 [Alpelisib] (partner 2 µM) in the same assay as above. Details: first compound 0.08 µM.
Procedure, shortened: as §1

Cell Line | relative viability
NCI-H838 | 0.91
NCI-H1651 | 0.973
EBC-1 | 0.644
NCI-H1734 | 0.615
NCI-H2009 | 1.08
PC-14 | 0.942
LCLC-103H | 0.774
NCI-H596 | 0.421
NCI-H2228 | 0.476
EMC-BAC-2 | 0.66
NCI-H2087 | 0.931
Calu-6 | 0.886
HCC-366 | 0.306
NCI-H1703 | 0.391
NCI-H647 | 1.05
LK-2 | 0.898

Cell Line | relative viability
NCI-H2126 | 0.664
H3255 | 0.582
COR-L23 | 0.607
COR-L 105 | 0.956
IA-LM | 0.706
LOU-NH91 | 0.617
NCI-H358 | 0.662
NCI-H3122 | 0.724
HOP-62 | 0.932
A549 | 0.778
HCC-78 | 0.26
NCI-H1299 | 1.04
NCI-H1563 | 0.881
NCI-H2170 | 0.706
ABC-1 | 0.928

Same assay, conditions: first compound 0.253 µM

Cell Line | relative viability
NCI-H838 | 0.914
NCI-H1651 | 0.992
EBC-1 | 0.744
NCI-H1734 | 0.683
NCI-H2009 | 1.16
LU99A | 0.49
PC-14 | 0.988
LCLC-103H | 0.875
NCI-H596 | 0.402
NCI-H2228 | 0.644
EMC-BAC-2 | 0.747
NCI-H2087 | 1.14
Calu-6 | 0.744
HCC-366 | 0.215
NCI-H1703 | 0.294
NCI-H647 | 0.935

Cell Line | relative viability
LK-2 | 1.09
NCI-H2126 | 0.689
NCI-H1793 | 0.625
H3255 | 0.713
COR-L23 | 0.609
COR-L 105 | 0.794
LOU-NH91 | 0.686
NCI-H358 | 0.772
NCI-H3122 | 0.794
HOP-62 | 0.809
A549 | 0.693
HCC-78 | 0.284
NCI-H1299 | 1.01
NCI-H1563 | 0.94
NCI-H2170 | 0.691
ABC-1 | 0.891

Same assay, conditions: first compound 0.8 µM

Cell Line | relative viability
NCI-H838 | 0.868
NCI-H1651 | 0.967
EBC-1 | 0.773
NCI-H1734 | 0.672
NCI-H2009 | 1.11
LU99A | 0.433
PC-14 | 0.851
LCLC-103H | 0.909
NCI-H596 | 0.35
NCI-H2228 | 0.612
EMC-BAC-2 | 0.702
NCI-H2087 | 0.772
Calu-6 | 0.906
HCC-366 | 0.275
NCI-H1703 | 0.408
NCI-H647 | 1.11
LK-2 | 1.33

Cell Line | relative viability
NCI-H2126 | 0.727
NCI-H1793 | 0.704
H3255 | 0.72
COR-L23 | 0.508
COR-L 105 | 0.869
IA-LM | 0.815
LOU-NH91 | 0.59
NCI-H358 | 0.645
NCI-H3122 | 0.843
HOP-62 | 1.1
A549 | 0.913
HCC-78 | 0.365
NCI-H1299 | 1.05
NCI-H1563 | 0.968
NCI-H2170 | 0.639
ABC-1 | 0.873

Same assay, conditions: first compound 2.53 µM

Cell Line | relative viability
NCI-H838 | 0.863
NCI-H1651 | 0.944
EBC-1 | 0.809
NCI-H1734 | 0.757
NCI-H2009 | 1.24
LU99A | 0.428
PC-14 | 0.989
LCLC-103H | 0.967
NCI-H596 | 0.412
NCI-H2228 | 0.688
EMC-BAC-2 | 0.779
NCI-H2087 | 1.29
Calu-6 | 0.957
HCC-366 | 0.317
NCI-H1703 | 0.354
NCI-H647 | 1.08

Cell Line | relative viability
NCI-H2126 | 0.71
NCI-H1793 | 0.69
H3255 | 0.654
COR-L23 | 0.611
COR-L 105 | 0.773
IA-LM | 0.533
LOU-NH91 | 0.698
NCI-H358 | 0.929
NCI-H3122 | 1.01
HOP-62 | 1.06
A549 | 0.758
HCC-78 | 0.317
NCI-H1299 | 1.05
NCI-H1563 | 0.98
NCI-H2170 | 0.707
ABC-1 | 0.907

Same assay, conditions: first compound 8 µM

Cell Line | relative viability
NCI-H838 | 0.743
NCI-H1651 | 0.959
EBC-1 | 0.712
NCI-H1734 | 0.687
NCI-H2009 | 1.21
LU99A | 0.443
PC-14 | 0.94
LCLC-103H | 0.883
NCI-H596 | 0.401
NCI-H2228 | 0.502
EMC-BAC-2 | 0.719
NCI-H2087 | 0.932
Calu-6 | 0.919
HCC-366 | 0.209
NCI-H1703 | 0.323
NCI-H647 | 0.751
LK-2 | 1.19

Cell Line | relative viability
NCI-H2126 | 0.634
NCI-H1793 | 0.79
H3255 | 0.594
COR-L23 | 0.71
COR-L 105 | 0.715
IA-LM | 0.673
LOU-NH91 | 0.592
NCI-H358 | 0.791
NCI-H3122 | 0.923
HOP-62 | 1.17
A549 | 0.673
HCC-78 | 0.366
NCI-H1299 | 0.988
NCI-H1563 | 0.828
NCI-H2170 | 0.555
ABC-1 | 0.967
